In patent US6649753B2, “Stable salts of S-adenosyl-L-methionine (SAMe) and the process for their preparation” (Orchid Chemicals & Pharmaceuticals Ltd., priority 2001, dated 2003):

Test: Accelerated stability of SAMe salts (ICH guidelines, HPLC)
Type: physicochemical
Details: 40-45° C. with 70-75% Relative Humidity
Procedure: Assessment of stability of the above SAMe salts has been done as per the ICH guidelines at 40-45° C. with 70-75% Relative Humidity and an improved HPLC method has been employed which resolves all the impurities formed on degrading SAMe (Table I). This method of HPLC analysis is the best method known so far to study stability of SAMe and has been validated as per the ICH guidelines. The details of the HPLC method followed and the accelerated stability report are as under:
Column=YMC-ODS-A, 4.6 mm×25 cm, C-18, 5 micron
Buffer=A mixture of 0.02 M citric acid & 0.01 M sodium dihydrogen orthophosphate
Mobile phase=using acetonitrile water with citric acid buffer
Detector=UV at 254 nm wavelength
Flow rate=1.5 ml per min.
Column temperature=25° C.
The percentage of SAMe after storage at the specified temperature was determined using the content of SAMe after storage and the content of SAMe before storage, i.e., initial content of SAMe in the corresponding salt using the following equation: [formula]

SAMe Residual Ratio (accelerated storage period 30 days): 97.5% | SAMe Residual Ratio (accelerated storage period 60 days): 95.2% | SAMe Residual Ratio (accelerated storage period 90 days): 94.5%
Substance: SAMe disulfate catechol-3,5-disulfonate or its sodium salt [Salt II]
